Several values for one entry are separate records, joined by “and”; a condition that tells them apart may be missing. Equal entries are not always repeated.
Assays:
Caov-3 cells = test: MTT cytotoxicity assay, Caov-3; assay type: cell-based, human
Method: (§1) The effects of the tested compounds 1–6 on HF-P4, U-118 MG, H1299, BT-20, and Caov-3 cell lines were evaluated by the MTT assay during 48 h treatment (Table 2 and Tables S2–S31). In all tested compounds, we recognized a difference in cytotoxicity between healthy cells (HF-P4) and cancer cell lines (BT-20, Caov-3, and H-1299). […] In the case of ovarian cancer, the authors discovered oncogenic and poor prognosis roles of TET1 in epithelial ovarian carcinoma (EOC). TET1 is believed to demethylate the epigenome and activate numerous oncogenic pathways in EOC. The aforementioned study presents a new mechanism where TET1 contributes to tumor development through collaboration with CK2α [21]. The overexpression of the TET1 protein was also found in triple negative breast cancer and was associated with an activation of PI3K/mTOR pathway and decreased overall survival.
The human ovary adenocarcinoma cell line (Caov-3), purchased from ATCC (Caov-3 (ATCC® HTB-75™), Manassas, VA, USA), was used for the cytotoxicity assay (MTT). Caov-3 cells were cultivated under standard conditions in Dulbecco’s modified Eagle’s medium (ATCC, Manassas, VA, USA) supplemented with 10% FBS and streptomycin (100 μg/mL) at 37 °C at a 5% CO2 atmosphere.
(§2) For the cytotoxicity assay, we used the following cell lines: human glioblastoma cell line U118-MG, human mammary gland/breast cell line BT-20, human ovary adenocarcinoma cell line Caov-3, and non-small-cell lung carcinoma H-1299. As previously mentioned, these cell lines contain a high level of the TET1 protein, which corresponds to a lower overall survival. In addition to these cell cultures, we used the human dermal fibroblast cell line HF-P4 as a healthy control. Determination of cytotoxicity was performed using the MTT [3-(4,5-dimethylthiazol-2-yl)-2,5-diphenyltetrazolium bromide] colorimetric assay. Viable cells from each cell line were cultured in 96-well plates (VWR, Stříbrná Skalice, Czech Republic) at a density of 1.0 × 10^5 cells per well and allowed to grow for 24 h in 200 μL of recommended medium. After a 1-day incubation, the medium was replaced with solutions of compounds 1–6 at concentration ranges of 0.1–20 μM. Each concentration was measured four times within one test, and the entire test was repeated three times. Tested compounds 1–6 were dissolved in DMSO and then diluted with corresponding medium to a final volume of 200 μL (maximum 1% DMSO). After 48 h exposure, cells were treated with 175 μL of MTT solution (P-LAB, Prague, Czech Republic) for 2 h. In the next step, MTT solution was removed, and 125 μL of DMSO (Penta, Prague, Czech Republic) was added to solubilize dark crystals of formazan formed in intact cells, and absorbance was measured at 570 nm by the enzyme-linked immunoabsorbent assay reader Infinite® 200 PRO (Tecan, Männedorf, Switzerland). The final DMSO concentration was smaller than 1% (v/v). The absorbance of untreated cells was considered 100%, and IC50 values were calculated by the GraphPad Prism 8 software. As a parameter for cytotoxicity, we used a concentration that inhibits 50% of cell growth (IC50).

TET1 protein = molecular target: T1, TET1 protein (Homo sapiens, UniProt Q8NFU7); test: Fluorometric TET hydroxylase activity assay with purified TET1 enzyme; assay type: biochemical
T1 construct: purchased Active Motif, Carlsbad, CA, USA
T1 sequence (Q8NFU7 whole entry): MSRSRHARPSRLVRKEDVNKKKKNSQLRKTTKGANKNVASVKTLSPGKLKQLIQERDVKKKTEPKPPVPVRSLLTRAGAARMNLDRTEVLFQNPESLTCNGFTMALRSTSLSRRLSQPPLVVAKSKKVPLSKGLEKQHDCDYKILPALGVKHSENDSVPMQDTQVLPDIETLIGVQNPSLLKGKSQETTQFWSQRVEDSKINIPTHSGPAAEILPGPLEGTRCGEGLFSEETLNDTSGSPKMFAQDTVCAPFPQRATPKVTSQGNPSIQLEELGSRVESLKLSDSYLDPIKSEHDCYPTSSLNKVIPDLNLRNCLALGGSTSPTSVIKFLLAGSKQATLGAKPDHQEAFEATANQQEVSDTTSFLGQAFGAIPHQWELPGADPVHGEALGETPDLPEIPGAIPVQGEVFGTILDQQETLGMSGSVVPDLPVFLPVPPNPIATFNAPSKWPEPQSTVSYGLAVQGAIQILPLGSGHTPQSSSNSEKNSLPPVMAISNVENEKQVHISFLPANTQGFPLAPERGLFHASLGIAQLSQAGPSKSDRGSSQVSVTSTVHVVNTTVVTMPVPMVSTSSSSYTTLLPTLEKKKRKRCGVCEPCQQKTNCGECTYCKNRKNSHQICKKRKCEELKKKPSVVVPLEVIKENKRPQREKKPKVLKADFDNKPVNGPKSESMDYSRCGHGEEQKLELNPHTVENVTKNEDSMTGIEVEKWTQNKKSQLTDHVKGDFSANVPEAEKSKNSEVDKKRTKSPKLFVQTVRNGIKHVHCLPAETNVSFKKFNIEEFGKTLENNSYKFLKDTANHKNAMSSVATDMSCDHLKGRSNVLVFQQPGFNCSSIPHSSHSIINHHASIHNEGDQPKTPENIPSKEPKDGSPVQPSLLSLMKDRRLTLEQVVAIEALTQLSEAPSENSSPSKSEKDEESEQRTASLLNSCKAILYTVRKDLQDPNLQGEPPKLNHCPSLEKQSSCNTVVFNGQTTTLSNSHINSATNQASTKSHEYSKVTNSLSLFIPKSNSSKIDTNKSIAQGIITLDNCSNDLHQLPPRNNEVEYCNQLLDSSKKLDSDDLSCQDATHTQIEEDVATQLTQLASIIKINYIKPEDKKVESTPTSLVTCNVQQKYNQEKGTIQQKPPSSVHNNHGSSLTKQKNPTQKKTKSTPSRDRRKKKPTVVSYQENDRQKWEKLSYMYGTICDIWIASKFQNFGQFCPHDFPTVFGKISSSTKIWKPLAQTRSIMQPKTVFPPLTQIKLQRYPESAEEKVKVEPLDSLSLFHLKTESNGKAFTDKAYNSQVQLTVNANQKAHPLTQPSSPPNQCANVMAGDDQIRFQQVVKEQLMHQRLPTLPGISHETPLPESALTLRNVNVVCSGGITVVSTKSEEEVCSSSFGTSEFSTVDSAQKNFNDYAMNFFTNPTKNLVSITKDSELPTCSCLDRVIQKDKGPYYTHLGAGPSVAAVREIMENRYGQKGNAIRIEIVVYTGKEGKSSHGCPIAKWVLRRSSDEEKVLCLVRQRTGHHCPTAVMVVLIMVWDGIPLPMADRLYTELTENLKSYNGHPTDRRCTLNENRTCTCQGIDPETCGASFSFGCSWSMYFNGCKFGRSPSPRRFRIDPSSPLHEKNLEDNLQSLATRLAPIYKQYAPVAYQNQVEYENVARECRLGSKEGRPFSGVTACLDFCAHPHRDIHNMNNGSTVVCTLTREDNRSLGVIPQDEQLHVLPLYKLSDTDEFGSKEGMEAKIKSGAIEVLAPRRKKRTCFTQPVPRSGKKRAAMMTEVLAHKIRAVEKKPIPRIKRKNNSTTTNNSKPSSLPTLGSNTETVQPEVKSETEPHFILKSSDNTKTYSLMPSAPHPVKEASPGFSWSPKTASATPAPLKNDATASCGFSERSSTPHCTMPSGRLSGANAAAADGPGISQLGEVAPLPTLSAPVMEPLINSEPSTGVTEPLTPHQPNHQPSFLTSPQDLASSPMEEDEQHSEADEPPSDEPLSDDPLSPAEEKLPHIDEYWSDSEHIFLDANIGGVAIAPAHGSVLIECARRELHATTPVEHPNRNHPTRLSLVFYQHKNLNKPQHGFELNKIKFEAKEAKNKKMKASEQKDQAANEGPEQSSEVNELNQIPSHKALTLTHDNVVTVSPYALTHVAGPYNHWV
Method: Figure 4 and Table S1 show the dependence of TET1 activity on the concentration of compound 1.
Compounds 1–6 were tested for the inhibition of the total 5mC hydroxylase TET enzyme using a purified TET1 enzyme (Active Motif, Carlsbad, CA, USA) by a fluorometric TET hydroxylase activity quantification kit (Abcam, Cambridge, UK). A total of 25 µg of purified TET1 protein was diluted in a TET assay buffer in a 5 mL volumetric flask, containing α-ketoglutarate and ferric sulfate. The concentrations of ascorbic acid, α-ketoglutarate, and ferric sulfate in the diluted TET assay buffer were 2, 1, and 0.1 mM, respectively. Tested compounds were dissolved in DMSO to obtain a concentration of 0.01 M. DMSO solutions of compounds 1–6 were then diluted with a TET assay buffer to concentrations of 10^−6, 10^−5, 10^−4, and 10^−3 M (in 10% of DMSO). Subsequently, 50 μL of the final TET assay buffer containing the TET1 protein and 5 μL of chelator’s solution was applied to each sample well. In control wells (TET1 without inhibitors), 5 μL of the final TET assay buffer with 10% DMSO was used instead of chelator’s solution. The final concentrations of chelators in a well plate were 10^−7, 10^−6, 10^−5, 10^−4, and 0 M with less than 1% of final concentration of DMSO. The following steps were performed according to manufacturer’s protocol. The TET1 protein converts methylated substrate to hydroxymethylated products, which could be recognized by a specific antibody. We determined the residual activity of the TET1 protein by measuring a fluorescence intensity on an enzyme-linked immunoabsorbent assay reader (ELISA), Infinite® 200 PRO (Tecan, Switzerland, Switzerland), at an excitation wavelength at 530 nm and an emission wavelength at 590 nm. Each concentration was measured twice within one test, and each test was repeated three times. IC50 values of active inhibitors were determined using GraphPad Prism 8 via nonlinear regression.

BT-20 cells = test: MTT cytotoxicity assay, BT-20; assay type: cell-based, human
Method: as §1
The human mammary gland/breast cell line (BT-20), purchased from ATCC (BT-20 (ATCC® HTB-19™), Manassas, VA, USA), was used for the cytotoxicity assay (MTT), and BT-20 cells were cultivated under standard conditions in Eagle’s minimum essential medium (ATCC, Manassas, VA, USA) supplemented with 10% FBS and streptomycin (100 μg/mL) at 37 °C at a 5% CO2 atmosphere.
as §2

`Cc1ccc(-n2c(-c3ccc(C(=O)NN)cc3)cc3c2cc(-c2ccc(C(=O)NN)cc2)n3-c2ccc(C)cc2)cc1` [Compound 1] was tested, and the Cell viability % (Caov-3 cells; Caov-3, 100 nM, 48 h, repeats, 0.1 µM) was 80.61% and 94.8%, the Cell viability % (Caov-3 cells; Caov-3, 500 nM, 48 h, repeats, 0.5 µM) was 91.36% and 100.9421% and 76.35% and the Cell viability % (Caov-3 cells; Caov-3, 750 nM, 48 h, repeats, 0.75 µM) was 95.41% and 77.67%. For the same compound, the Cell viability % (Caov-3 cells; Caov-3, 1 uM, 48 h, repeats, 1 µM) was 71.07% and 89.66%, the Cell viability % (Caov-3 cells; Caov-3, 2.5 uM, 48 h, repeats, 2.5 µM) was 71.79% and 55.75% and the Cell viability % (Caov-3 cells; Caov-3, 5 uM, 48 h, repeats, 5 µM) was 48.77% and 58.08%. For the same compound, the Cell viability % (Caov-3 cells; Caov-3, 7.5 uM, 48 h, repeats, 7.5 µM) was 51.68% and 65.52%, the Cell viability % (Caov-3 cells; Caov-3, 10 uM, 48 h, repeats, 10 µM) was 53.56% and 43.67% and the Cell viability % (Caov-3 cells; Caov-3, 15 uM, 48 h, repeats, 15 µM) was 35.1% and 41.9%. For the same compound, the Cell viability % (Caov-3 cells; Caov-3, 20 uM, 48 h, repeats, 20 µM) was 35.73% and 39.69%, the viability at 0.1 µM (Caov-3 cells; Homo sapiens, Caov-3, 48 h, Caov-3, 100 nM, repeats, read-out: Cell viability %) was 97.9% and the viability at 0.75 µM (Caov-3 cells; Homo sapiens, Caov-3, 48 h, Caov-3, 750 nM, repeats, read-out: Cell viability %) was 78.5%. It also gave a viability at 1 µM (Caov-3 cells; Homo sapiens, Caov-3, 48 h, Caov-3, 1 uM, repeats, read-out: Cell viability %) of 81.2%, a viability at 2.5 µM (Caov-3 cells; Homo sapiens, Caov-3, 48 h, Caov-3, 2.5 uM, repeats, read-out: Cell viability %) of 55.9% and a viability at 5 µM (Caov-3 cells; Homo sapiens, Caov-3, 48 h, Caov-3, 5 uM, repeats, read-out: Cell viability %) of 50.9%. It also gave a viability at 7.5 µM (Caov-3 cells; Homo sapiens, Caov-3, 48 h, Caov-3, 7.5 uM, repeats, read-out: Cell viability %) of 56.4%, a viability at 10 µM (Caov-3 cells; Homo sapiens, Caov-3, 48 h, Caov-3, 10 uM, repeats, read-out: Cell viability %) of 45.1% and a viability at 15 µM (Caov-3 cells; Homo sapiens, Caov-3, 48 h, Caov-3, 15 uM, repeats, read-out: Cell viability %) of 45.9%. The viability at 20 µM (Caov-3 cells; Homo sapiens, Caov-3, 48 h, Caov-3, 20 uM, repeats, read-out: Cell viability %) was 28.5%, the IC50 (Caov-3 cells; Homo sapiens, Caov-3, MTT, 48 h) was 6.48 µM and the “average residual TET activity (%)” value (TET1 protein; Log c 4) was 5.108%. For the same compound, the “average residual TET activity (%)” value (TET1 protein; Log c 5) was 19.97%, the “average residual TET activity (%)” value (TET1 protein; Log c 6) was 56.08% and the “average residual TET activity (%)” value (TET1 protein; Log c 7) was 82.59%. The Cell viability % (BT-20 cells; BT-20, 100 nM, 48 h, repeats, 0.1 µM) was 100.0252% and 99.53%, the Cell viability % (BT-20 cells; BT-20, 500 nM, 48 h, repeats, 0.5 µM) was 106.1555% and 91.85% and the Cell viability % (BT-20 cells; BT-20, 750 nM, 48 h, repeats, 0.75 µM) was 98.6% and 95.52%. For the same compound, the Cell viability % (BT-20 cells; BT-20, 1 uM, 48 h, repeats, 1 µM) was 98.92% and 100.049%, the Cell viability % (BT-20 cells; BT-20, 2.5 uM, 48 h, repeats, 2.5 µM) was 55.65% and 54.6523% and the Cell viability % (BT-20 cells; BT-20, 5 uM, 48 h, repeats, 5 µM) was 56.31% and 56.39%. The Cell viability % (BT-20 cells; BT-20, 7.5 uM, 48 h, repeats, 7.5 µM) was 50.1262% and 42.238%, the Cell viability % (BT-20 cells; BT-20, 10 uM, 48 h, repeats, 10 µM) was 44.0939% and 37.78% and the Cell viability % (BT-20 cells; BT-20, 15 uM, 48 h, repeats, 15 µM) was 32.99% and 30.02%. For the same compound, the Cell viability % (BT-20 cells; BT-20, 20 uM, 48 h, repeats, 20 µM) was 18.85% and 15.23%, the viability at 0.1 µM (BT-20 cells; Homo sapiens, BT-20, 48 h, BT-20, 100 nM, repeats, read-out: Cell viability %) was 102% and the viability at 0.5 µM (BT-20 cells; Homo sapiens, BT-20, 48 h, BT-20, 500 nM, repeats, read-out: Cell viability %) was 87.8%. It also gave a viability at 0.75 µM (BT-20 cells; Homo sapiens, BT-20, 48 h, BT-20, 750 nM, repeats, read-out: Cell viability %) of 91.2%, a viability at 1 µM (BT-20 cells; Homo sapiens, BT-20, 48 h, BT-20, 1 uM, repeats, read-out: Cell viability %) of 103% and a viability at 2.5 µM (BT-20 cells; Homo sapiens, BT-20, 48 h, BT-20, 2.5 uM, repeats, read-out: Cell viability %) of 69.2%. The viability at 5 µM (BT-20 cells; Homo sapiens, BT-20, 48 h, BT-20, 5 uM, repeats, read-out: Cell viability %) was 56.8%, the viability at 7.5 µM (BT-20 cells; Homo sapiens, BT-20, 48 h, BT-20, 7.5 uM, repeats, read-out: Cell viability %) was 41.2% and the viability at 10 µM (BT-20 cells; Homo sapiens, BT-20, 48 h, BT-20, 10 uM, repeats, read-out: Cell viability %) was 41.5%. The viability at 15 µM (BT-20 cells; Homo sapiens, BT-20, 48 h, BT-20, 15 uM, repeats, read-out: Cell viability %) was 33.5%, the viability at 20 µM (BT-20 cells; Homo sapiens, BT-20, 48 h, BT-20, 20 uM, repeats, read-out: Cell viability %) was 19.8% and the IC50 (BT-20 cells; Homo sapiens, BT-20, MTT, 48 h) was 5.94 µM.
